According to patent US11999695B2, “YAP1 inhibitors that target the interaction of YAP1 with OCT4” (H. LEE MOFFITT CANCER CENTER AND RESEARCH INSTITUTE, INC., priority 2016, dated 2024):

Target: YAP1:OCT4 (Homo sapiens, UniProt P46937)
Test: In vitro YAP1:OCT4 ELISA binding assay
Settings: YAP1:OCT4 disruption
Experimental: Activities of Compounds in the In Vitro YAP1:OCT4 ELISA Binding Assay
Selected compounds were assayed in a YAP1:OCT4 binding assay.

Sequence of YAP1:OCT4 (P46937 whole entry): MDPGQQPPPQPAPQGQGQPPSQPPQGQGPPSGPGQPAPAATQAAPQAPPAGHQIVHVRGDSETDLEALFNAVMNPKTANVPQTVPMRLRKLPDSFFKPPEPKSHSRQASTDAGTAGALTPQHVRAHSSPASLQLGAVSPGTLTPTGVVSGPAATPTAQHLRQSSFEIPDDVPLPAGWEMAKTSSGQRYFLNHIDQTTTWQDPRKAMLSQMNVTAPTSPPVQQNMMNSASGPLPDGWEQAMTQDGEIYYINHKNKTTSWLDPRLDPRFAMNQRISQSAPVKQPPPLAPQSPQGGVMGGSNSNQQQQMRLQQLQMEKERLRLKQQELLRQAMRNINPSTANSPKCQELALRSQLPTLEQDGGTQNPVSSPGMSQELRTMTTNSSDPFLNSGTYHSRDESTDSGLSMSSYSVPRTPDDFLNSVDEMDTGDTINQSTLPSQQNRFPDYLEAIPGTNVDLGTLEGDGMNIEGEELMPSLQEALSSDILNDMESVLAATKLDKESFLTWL

| Compound | IC50 |
| --- | --- |
| COC(=O)[C@H](Cc1ccc(OCc2ccccc2)cc1)NC(=O)CC1CCN(C(=O)OC(C)(C)C)CC1 [SR1-083, tert-Butyl (S)-4-(2-((3-(4-(benzyloxy)phenyl)-1-methoxy-1-oxopropan-2-yl)amino)-2-oxoethyl)piperidine-1-carboxylate] | 1 to 10 µM |
| COC(=O)[C@H](Cc1ccc(OCc2ccccc2)cc1)NC(=O)CN1CCN(C(=O)OC(C)(C)C)CC1 [SR1-090, tert-Butyl (S)-4-(2-((3-(4-(benzyloxy)phenyl)-1-methoxy-1-oxopropan-2-yl)amino)-2-oxoethyl)piperazine-1-carboxylate] | > 10 µM |
| COC(=O)[C@H](Cc1ccc(OCc2ccccc2)cc1)NC(=O)CN1CCN(C(=O)[C@@H]2CCCN2C(=O)OCC2c3ccccc3-c3ccccc32)CC1 [SR1-094, Fmoc-Pro-piperazineacetic acid Tyr(bzl)-OMe] | > 10 µM |
| COC(=O)[C@H](Cc1ccc(OCc2ccccc2)cc1)NC(=O)CC1CCN(Cc2ccccc2)CC1 [SR1-117, Methyl (S)-3-(4-(benzyloxy)phenyl)-2-(2-(1-benzylpiperidin-4-yl)acetamido)propanoate] | > 10 µM |
| COC(=O)[C@H](Cc1ccc(OCc2ccccc2)cc1)NC(=O)CC1CCN(C(=O)c2ccccc2)CC1 [SR1-118, Methyl (S)-2-(2-(1-benzoylpiperidin-4-yl)acetamido)-3-(4-(benzyloxy)phenyl)propanoate] | 1 to 10 µM |
| COC(=O)[C@H](Cc1ccc(OCc2ccccc2)cc1)NC(=O)CC1CCN(C(=O)CCc2ccccc2)CC1 [SR1-119, Methyl (S)-3-(4-(benzyloxy)phenyl)-2-(2-(1-(3-phenylpropanoyl)piperidin-4-yl)acetamido)propanoate] | 1 to 10 µM |
| COC(=O)[C@H](Cc1ccc(OCc2ccccc2)cc1)NC(=O)CC1CCN(C(=O)Cc2ccccc2)CC1 [SR1-122, Methyl (S)-3-(4-(benzyloxy)phenyl)-2-(2-(1-(2-phenylacetyl)piperidin-4-yl)acetamido)-propanoate] | 1 to 10 µM |
| CC(C)(C)OC(=O)N1CCC(CC(=O)N[C@@H](Cc2ccc(OCc3ccccc3)cc2)C(=O)O)CC1 [SR1-152, (S)-3-(4-(benzyloxy)phenyl)-2-(2-(1-(tert-butoxycarbonyl)piperidin-4-yl)acetamido)-propanoic acid] | 1 to 10 µM |
| CC(C)NC(=O)[C@H](Cc1ccc(OCc2ccccc2)cc1)NC(=O)CC1CCN(C(=O)OC(C)(C)C)CC1 [SR1-167, tert-butyl (S)-4-(2-((3-(4-(benzyloxy)phenyl)-1-(isopropylamino)-1-oxopropan-2-yl)amino)-2-oxoethyl)piperidine-1-carboxylate] | 1 to 10 µM |
| COC(=O)[C@H](Cc1ccc(OCc2ccccc2)cc1)NC(=O)CC1CCN(C(=O)CCc2ccc(Cl)cc2)CC1 [SR2-004, Methyl (S)-3-(4-(benzyloxy)phenyl)-2-(2-(1-(3-(4-chlorophenyl)propanoyl)piperidin-4-yl)acetamido)propanoate] | < 10 µM |
| COC(=O)[C@H](Cc1ccc(OCc2ccccc2)cc1)NC(=O)CC1CCN(C(=O)CCc2ccccc2OC)CC1 [SR2-006, Methyl (S)-3-(4-(benzyloxy)phenyl)-2-(2-(1-(3-(2-methoxyphenyl)propanoyl)piperidin-4-yl)acetamido)propanoate] | 1 to 10 µM |
| CCOc1ccc(CCC(=O)N2CCC(CC(=O)N[C@@H](Cc3ccc(OCc4ccccc4)cc3)C(=O)OC)CC2)cc1 [SR2-007, Methyl (S)-3-(4-(benzyloxy)phenyl)-2-(2-(1-(3-(4-ethoxyphenyl)propanoyl)piperidin-4-yl)acetamido)propanoate] | 1 to 10 µM |
| COC(=O)[C@H](Cc1ccc(OCc2ccccc2)cc1)NC(=O)CC1CCN(C(=O)CCc2ccc(F)cc2)CC1 [SR2-008, Methyl (S)-3-(4-(benzyloxy)phenyl)-2-(2-(1-(3-(4-fluorophenyl)propanoyl)piperidin-4-yl)acetamido)propanoate] | 1 to 10 µM |
